Calls of active or inactive are those of the source. No cut-off for these calls is given here.
What was measured:
[1] = Drug uptake in human PANC1 cells at 5 uM after 2 hrs by FACS analysis; assay type: ADME, cell-based; conditions: panc-1, 2 h
[2] = Drug uptake in human PANC1 cells at 5 uM after 16 hrs by FACS analysis; assay type: ADME, cell-based; conditions: panc-1, 16 h
[3] = tested on: PANC-1; assay: Photodynamic antitumor activity against human PANC1 cells xenografted in SCID mouse assessed as reduction in tumor growth at 30 mg/kg administered intratumorally after 2 hrs photoirradiated by diode laser at 193 J/cm2 measured after 14 days by micrometer caliper method; assay type: functional, organism-based
[4] = tested on: PANC-1; assay: Antitumor activity against human PANC1 cells xenografted in SCID mouse assessed as reduction in tumor growth at 30 mg/kg administered intratumorally measured after 14 days by micrometer caliper method; assay type: functional, organism-based
[5] = target: Quadruplex DNA; assay: Binding affinity to human KRAS utr-c RNA g-quadruplex by fluorescence spectroscopy; assay type: nucleic-acid assay
[6] = target: Quadruplex DNA; assay: Binding affinity to human KRAS utr-z RNA g-quadruplex by fluorescence spectroscopy; assay type: nucleic-acid assay
[7] = target: Quadruplex DNA; assay: Binding affinity to NRAS RNA g-quadruplex (unknown origin) by fluorescence spectroscopy; assay type: nucleic-acid assay
[8] = Drug uptake in human PANC1 cells in presence of dynamin-inhibitor dynasore; assay type: ADME, cell-based; conditions: panc-1
[9] = target: Quadruplex DNA; assay: Binding affinity to human KRAS utr-1 RNA g-quadruplex by fluorescence spectroscopy; assay type: nucleic-acid assay
[10] = tested on: RNA; assay: Binding affinity to total RNA in human PANC1 cells assessed as increase in amount of beta2-microglobulin mRNA in recovered RNA from biotin-streptavidin pulled down at 0.2 to 0.6 uM at pH 7.4 and 4 degree C using biotinylated compound by qRT-PCR analysis; assay type: cell-based
[11] = tested on: RNA; assay: Binding affinity to total RNA in human PANC1 cells assessed as increase in amount of HPRT mRNA in recovered RNA from biotin-streptavidin pulled down at 0.2 to 0.6 uM at pH 7.4 and 4 degree C using biotinylated compound by qRT-PCR analysis; assay type: cell-based
[12] = tested on: DNA; assay: Binding affinity to DNA (unknown origin) strands containing 95 and 89 nucleotides in ratio of 1:2 assessed as interaction between G4 motif of 95 nucleotides and biotinylated compound at 0.2 to 0.4 uM at pH 7.4 after 1 hr by biotin-streptavidin pull-down assay; assay type: nucleic-acid assay
[13] = tested on: RNA; assay: Binding affinity to total RNA in human PANC1 cells assessed as increase in amount of KRAS mRNA in recovered RNA from biotin-streptavidin pulled down at 0.2 to 0.6 uM at pH 7.4 and 4 degree C using biotinylated compound by qRT-PCR analysis relative to control; assay type: cell-based
[14] = tested on: DNA; assay: Binding affinity to DNA (unknown origin) strands containing 95 and 89 nucleotides in ratio of 1:2 assessed as presence of ssDNA when G4 motif of 95 nucleotides interact with biotinylated compound at > 0.4 uM at pH 7.4 after 1 hr by biotin-streptavidin pull-down assay; assay type: nucleic-acid assay
[15] = tested on: RNA; assay: Binding affinity to total RNA in human PANC1 cells assessed as increase in amount of NRAS mRNA in recovered RNA from biotin-streptavidin pulled down at 0.2 to 0.6 uM at pH 7.4 and 4 degree C using biotinylated compound by qRT-PCR analysis relative to control; assay type: cell-based

Row | Structure (SMILES) | Drug uptake [1] | Drug uptake [2] | Activity [3] | Activity [4] | Kd [5] [nM] | Kd [6] [nM] | Kd [7] [nM] | Drug uptake [8] | Kd [9] [nM] | Activity [10] | Activity [11] | Activity [12] | fold change (FC) [13] | Activity [14] | Activity [15]
1 | C[n+]1ccccc1-c1c2nc(c(-c3cccc[n+]3C)c3ccc([nH]3)c(-c3cccc[n+]3C)c3ccc([nH]3)c(-c3cccc[n+]3C)c3nc1C=C3)C=C2.[Cl-].[Cl-].[Cl-].[Cl-] | Not Active | Active | inactive | inactive |  |  |  |  |  |  |  |  |  |  | 
2 | C[n+]1ccc(-c2c3nc(c(-c4cc[n+](C)cc4)c4ccc([nH]4)c(-c4cc[n+](C)cc4)c4nc(c(-c5cc[n+](C)cc5)c5ccc2[nH]5)C=C4)C=C3)cc1.[Cl-].[Cl-].[Cl-].[Cl-] [TMPYP4 CHLORIDE] | Not Active | Active |  |  | 1020 | 681 | 301 | Active | 454 |  |  |  |  |  | 
3 | C[n+]1ccc(-c2c3nc(c(-c4cc[n+](C)cc4)c4ccc([nH]4)c(-c4cc[n+](CCCCCCCCCCCCNC(=O)CCCC[C@@H]5SC[C@@H]6NC(=O)N[C@@H]65)cc4)c4nc(c(-c5cc[n+](C)cc5)c5ccc2[nH]5)C=C4)C=C3)cc1 |  |  |  |  |  |  |  |  |  | inactive | inactive | Active | 25 | Active | Active
